Converted amounts (≈) assume the structure as drawn.
What was measured:
[1] = biological target: T1, Serine/threonine-protein kinase B-raf (Homo sapiens, UniProt P15056, V600E); assay: Inhibition of recombinant C-terminal his6-tagged B-Raf (437 to 765 residues) V600E mutant (unknown origin) catalytic domain expressed in baculovirus infected Sf21 insect cells using biotinylated Mek substrate preincubated for 60 mins measured after 3 hrs by amplified luminescence proximity homogeneous assay
[2] = biological target: T1, Serine/threonine-protein kinase B-raf; assay: Inhibition of B-Raf V600E mutant in human A375 cells assessed as reduction in ERK phosphorylation; type: cell-based
A-375 = assay: Antiproliferative activity against human A375 cells; type: functional, cell-based
MAP kinase p38 = MAP kinase p38 (Homo sapiens, UniProt O15264+Q15759+Q16539+P53778); assay: Inhibition of P38 (unknown origin); type: protein assay
Homo sapiens [3] = species on record: Homo sapiens; assay: Selectivity ratio of IC50 for P38 (unknown origin) to IC50 for recombinant C-terminal his6-tagged B-Raf (437 to 765 residues) V600E mutant (unknown origin) expressed in baculovirus infected Sf21 insect cells
[4] = biological target: Vascular endothelial growth factor receptor 2 (Homo sapiens, UniProt P35968); assay: Inhibition of VEGFR2 (unknown origin)
Chain of Vascular endothelial growth factor receptor 2 (P35968 whole entry, the tested form may be a part): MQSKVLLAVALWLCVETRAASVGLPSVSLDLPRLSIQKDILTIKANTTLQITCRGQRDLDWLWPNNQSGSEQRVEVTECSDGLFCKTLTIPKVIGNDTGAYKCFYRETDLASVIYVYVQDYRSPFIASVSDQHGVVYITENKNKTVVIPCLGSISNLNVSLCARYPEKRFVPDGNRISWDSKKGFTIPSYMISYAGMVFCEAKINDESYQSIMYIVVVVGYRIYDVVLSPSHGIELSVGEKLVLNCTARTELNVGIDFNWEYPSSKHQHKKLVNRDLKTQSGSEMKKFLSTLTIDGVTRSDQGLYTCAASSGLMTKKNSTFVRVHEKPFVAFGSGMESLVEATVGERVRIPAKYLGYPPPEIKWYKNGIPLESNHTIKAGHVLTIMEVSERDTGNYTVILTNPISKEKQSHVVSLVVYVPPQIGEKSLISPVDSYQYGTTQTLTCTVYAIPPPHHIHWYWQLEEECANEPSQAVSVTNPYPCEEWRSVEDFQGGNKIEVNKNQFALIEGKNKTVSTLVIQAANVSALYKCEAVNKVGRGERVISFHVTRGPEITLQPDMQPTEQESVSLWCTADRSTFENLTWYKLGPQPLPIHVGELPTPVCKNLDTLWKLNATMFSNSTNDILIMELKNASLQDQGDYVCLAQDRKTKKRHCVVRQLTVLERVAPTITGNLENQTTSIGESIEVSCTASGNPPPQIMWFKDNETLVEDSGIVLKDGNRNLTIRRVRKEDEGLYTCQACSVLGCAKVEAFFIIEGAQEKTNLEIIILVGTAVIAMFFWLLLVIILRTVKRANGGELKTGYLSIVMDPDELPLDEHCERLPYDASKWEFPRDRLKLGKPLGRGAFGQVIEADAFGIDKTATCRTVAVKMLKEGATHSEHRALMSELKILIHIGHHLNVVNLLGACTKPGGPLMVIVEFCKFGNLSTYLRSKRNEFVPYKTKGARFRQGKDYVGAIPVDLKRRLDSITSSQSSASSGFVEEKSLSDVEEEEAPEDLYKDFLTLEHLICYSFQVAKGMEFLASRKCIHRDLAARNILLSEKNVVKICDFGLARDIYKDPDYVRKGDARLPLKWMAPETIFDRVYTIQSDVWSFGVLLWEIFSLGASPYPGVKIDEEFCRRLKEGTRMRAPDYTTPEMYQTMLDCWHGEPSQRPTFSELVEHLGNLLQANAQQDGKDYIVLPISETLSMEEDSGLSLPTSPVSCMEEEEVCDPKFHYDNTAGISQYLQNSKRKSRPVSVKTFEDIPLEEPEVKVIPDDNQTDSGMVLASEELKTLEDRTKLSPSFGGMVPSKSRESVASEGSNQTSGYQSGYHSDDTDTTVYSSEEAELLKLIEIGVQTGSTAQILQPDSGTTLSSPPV

Homo sapiens [5] = species on record: Homo sapiens; assay: Selectivity ratio of IC50 for VEGFR2 (unknown origin) to IC50 for recombinant C-terminal his6-tagged B-Raf (437 to 765 residues) V600E mutant (unknown origin) expressed in baculovirus infected Sf21 insect cells
[6] = Solubility of the compound in PBS at pH 7; type: physicochemical
[7] = biological target: Platelet-derived growth factor receptor alpha (Homo sapiens, UniProt P16234); assay: Inhibition of PDGFRalpha (unknown origin)
Chain of Platelet-derived growth factor receptor alpha (P16234 whole entry): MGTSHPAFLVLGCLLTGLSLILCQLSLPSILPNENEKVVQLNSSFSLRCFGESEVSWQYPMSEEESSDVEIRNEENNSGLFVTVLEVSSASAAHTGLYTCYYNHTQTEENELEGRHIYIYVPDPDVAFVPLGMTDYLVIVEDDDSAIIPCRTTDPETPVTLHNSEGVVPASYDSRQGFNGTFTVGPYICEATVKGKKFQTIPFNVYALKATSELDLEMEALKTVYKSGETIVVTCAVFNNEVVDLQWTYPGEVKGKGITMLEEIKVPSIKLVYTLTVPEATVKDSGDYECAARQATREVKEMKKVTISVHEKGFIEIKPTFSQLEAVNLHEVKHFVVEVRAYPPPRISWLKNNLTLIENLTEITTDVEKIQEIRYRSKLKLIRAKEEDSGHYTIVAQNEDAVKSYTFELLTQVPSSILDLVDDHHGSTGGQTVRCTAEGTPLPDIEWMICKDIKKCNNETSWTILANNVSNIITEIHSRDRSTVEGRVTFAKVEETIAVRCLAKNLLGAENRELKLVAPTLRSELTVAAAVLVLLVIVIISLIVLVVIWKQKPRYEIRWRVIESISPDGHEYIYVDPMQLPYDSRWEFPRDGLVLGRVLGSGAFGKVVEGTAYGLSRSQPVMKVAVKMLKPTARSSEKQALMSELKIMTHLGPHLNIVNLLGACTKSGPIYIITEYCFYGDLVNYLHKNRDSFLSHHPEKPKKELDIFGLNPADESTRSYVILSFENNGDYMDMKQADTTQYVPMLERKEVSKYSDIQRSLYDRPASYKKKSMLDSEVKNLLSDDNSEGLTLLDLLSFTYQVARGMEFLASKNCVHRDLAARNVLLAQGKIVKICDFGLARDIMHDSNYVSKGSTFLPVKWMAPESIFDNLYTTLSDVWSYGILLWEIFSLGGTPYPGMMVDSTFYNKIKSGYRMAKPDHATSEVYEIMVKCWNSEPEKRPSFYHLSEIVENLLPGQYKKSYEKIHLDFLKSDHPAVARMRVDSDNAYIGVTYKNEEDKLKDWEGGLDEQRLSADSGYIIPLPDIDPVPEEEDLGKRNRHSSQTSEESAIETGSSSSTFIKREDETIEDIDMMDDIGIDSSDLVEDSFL

[8] = biological target: Mast/stem cell growth factor receptor Kit (Homo sapiens, UniProt P10721); assay: Inhibition of Kit (unknown origin)
Chain of Mast/stem cell growth factor receptor Kit (P10721 whole entry): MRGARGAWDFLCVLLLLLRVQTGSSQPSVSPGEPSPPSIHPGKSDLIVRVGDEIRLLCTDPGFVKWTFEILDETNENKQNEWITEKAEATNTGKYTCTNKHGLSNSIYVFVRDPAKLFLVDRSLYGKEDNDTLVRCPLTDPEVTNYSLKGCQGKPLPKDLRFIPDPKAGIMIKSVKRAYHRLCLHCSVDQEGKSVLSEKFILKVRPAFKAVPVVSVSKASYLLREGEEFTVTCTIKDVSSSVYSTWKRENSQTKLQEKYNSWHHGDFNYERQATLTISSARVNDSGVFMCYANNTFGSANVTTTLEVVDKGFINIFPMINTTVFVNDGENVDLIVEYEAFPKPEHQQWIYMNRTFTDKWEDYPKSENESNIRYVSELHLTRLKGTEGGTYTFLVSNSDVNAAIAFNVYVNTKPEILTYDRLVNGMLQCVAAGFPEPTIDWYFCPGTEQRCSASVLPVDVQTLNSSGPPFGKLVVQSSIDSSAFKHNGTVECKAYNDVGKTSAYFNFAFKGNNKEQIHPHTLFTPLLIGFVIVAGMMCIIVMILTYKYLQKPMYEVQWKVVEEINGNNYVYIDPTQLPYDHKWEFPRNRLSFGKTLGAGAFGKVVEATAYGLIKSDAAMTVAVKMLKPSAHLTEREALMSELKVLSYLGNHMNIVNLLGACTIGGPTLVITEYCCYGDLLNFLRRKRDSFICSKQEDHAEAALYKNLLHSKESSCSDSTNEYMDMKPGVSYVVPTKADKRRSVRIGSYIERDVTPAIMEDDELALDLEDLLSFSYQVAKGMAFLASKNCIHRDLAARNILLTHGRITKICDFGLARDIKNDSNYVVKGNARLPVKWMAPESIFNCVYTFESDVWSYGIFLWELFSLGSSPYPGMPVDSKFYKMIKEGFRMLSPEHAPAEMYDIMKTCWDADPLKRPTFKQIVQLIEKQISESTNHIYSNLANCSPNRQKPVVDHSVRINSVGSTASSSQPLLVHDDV

Ephrin type-A receptor 4 = Ephrin type-A receptor 4 (Homo sapiens, UniProt P54764); assay: Inhibition of EphA4 (unknown origin)
Ephrin type-B receptor 4 = biological target: T2, Ephrin type-B receptor 4 (Homo sapiens, UniProt P54760); assay: Inhibition of EphB4 (unknown origin)
T2 sequence (P54760 whole entry): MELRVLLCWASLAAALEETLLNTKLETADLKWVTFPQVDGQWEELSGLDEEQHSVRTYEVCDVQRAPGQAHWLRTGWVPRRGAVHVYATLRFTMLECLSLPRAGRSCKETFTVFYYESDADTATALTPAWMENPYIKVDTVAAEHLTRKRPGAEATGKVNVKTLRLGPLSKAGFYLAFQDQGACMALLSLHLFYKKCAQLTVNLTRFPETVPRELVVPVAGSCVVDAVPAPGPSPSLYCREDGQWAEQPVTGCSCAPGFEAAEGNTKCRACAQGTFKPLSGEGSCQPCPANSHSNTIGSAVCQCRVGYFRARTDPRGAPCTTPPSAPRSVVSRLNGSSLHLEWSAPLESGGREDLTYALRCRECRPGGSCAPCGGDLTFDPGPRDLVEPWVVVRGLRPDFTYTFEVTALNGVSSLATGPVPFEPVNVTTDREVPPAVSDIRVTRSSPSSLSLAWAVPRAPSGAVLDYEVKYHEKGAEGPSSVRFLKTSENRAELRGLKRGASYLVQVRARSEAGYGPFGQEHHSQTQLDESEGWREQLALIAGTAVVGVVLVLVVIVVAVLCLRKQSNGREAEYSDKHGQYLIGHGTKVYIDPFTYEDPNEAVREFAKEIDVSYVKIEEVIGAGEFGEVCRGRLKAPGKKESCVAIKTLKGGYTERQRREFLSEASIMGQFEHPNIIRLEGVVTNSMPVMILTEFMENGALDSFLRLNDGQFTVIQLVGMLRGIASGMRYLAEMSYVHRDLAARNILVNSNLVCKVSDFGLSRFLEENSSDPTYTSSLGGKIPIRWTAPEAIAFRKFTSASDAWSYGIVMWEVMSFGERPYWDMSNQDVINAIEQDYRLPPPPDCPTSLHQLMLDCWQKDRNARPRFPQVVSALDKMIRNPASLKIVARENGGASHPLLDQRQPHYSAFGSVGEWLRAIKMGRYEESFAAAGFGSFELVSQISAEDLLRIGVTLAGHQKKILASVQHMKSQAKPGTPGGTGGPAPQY

[9] = biological target: Tyrosine-protein kinase Lyn (Homo sapiens, UniProt P07948); assay: Inhibition of Lyn (unknown origin)
Chain of Tyrosine-protein kinase Lyn (P07948 whole entry): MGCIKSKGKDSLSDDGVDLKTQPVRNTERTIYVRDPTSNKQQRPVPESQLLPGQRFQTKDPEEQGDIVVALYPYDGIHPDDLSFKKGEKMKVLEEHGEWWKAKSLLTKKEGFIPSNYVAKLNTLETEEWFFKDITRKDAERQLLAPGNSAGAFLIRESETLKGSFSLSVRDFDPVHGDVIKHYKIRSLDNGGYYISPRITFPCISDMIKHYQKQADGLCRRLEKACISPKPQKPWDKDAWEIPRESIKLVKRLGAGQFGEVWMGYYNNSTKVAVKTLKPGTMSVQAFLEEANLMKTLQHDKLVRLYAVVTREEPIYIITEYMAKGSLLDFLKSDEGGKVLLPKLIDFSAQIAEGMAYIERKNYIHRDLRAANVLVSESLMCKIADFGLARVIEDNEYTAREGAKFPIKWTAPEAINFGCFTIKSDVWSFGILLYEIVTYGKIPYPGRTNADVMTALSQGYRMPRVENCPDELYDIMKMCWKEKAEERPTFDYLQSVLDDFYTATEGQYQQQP

[10] = Clearance in mouse at 20 mg/kg, po administered as single dose; type: ADME, organism-based; conditions: in vivo
Mus musculus = assay: Volume of distribution in mouse at 20 mg/kg, po administered as single dose; type: ADME, organism-based; conditions: in vivo
[11] = Half life in mouse at 20 mg/kg, po administered as single dose; type: ADME, organism-based; conditions: in vivo
[12] = Oral bioavailability in mouse at 20 mg/kg administered as single dose; type: ADME, organism-based; conditions: in vivo

T1 sequence (P15056 2-766 V600E limits assumed): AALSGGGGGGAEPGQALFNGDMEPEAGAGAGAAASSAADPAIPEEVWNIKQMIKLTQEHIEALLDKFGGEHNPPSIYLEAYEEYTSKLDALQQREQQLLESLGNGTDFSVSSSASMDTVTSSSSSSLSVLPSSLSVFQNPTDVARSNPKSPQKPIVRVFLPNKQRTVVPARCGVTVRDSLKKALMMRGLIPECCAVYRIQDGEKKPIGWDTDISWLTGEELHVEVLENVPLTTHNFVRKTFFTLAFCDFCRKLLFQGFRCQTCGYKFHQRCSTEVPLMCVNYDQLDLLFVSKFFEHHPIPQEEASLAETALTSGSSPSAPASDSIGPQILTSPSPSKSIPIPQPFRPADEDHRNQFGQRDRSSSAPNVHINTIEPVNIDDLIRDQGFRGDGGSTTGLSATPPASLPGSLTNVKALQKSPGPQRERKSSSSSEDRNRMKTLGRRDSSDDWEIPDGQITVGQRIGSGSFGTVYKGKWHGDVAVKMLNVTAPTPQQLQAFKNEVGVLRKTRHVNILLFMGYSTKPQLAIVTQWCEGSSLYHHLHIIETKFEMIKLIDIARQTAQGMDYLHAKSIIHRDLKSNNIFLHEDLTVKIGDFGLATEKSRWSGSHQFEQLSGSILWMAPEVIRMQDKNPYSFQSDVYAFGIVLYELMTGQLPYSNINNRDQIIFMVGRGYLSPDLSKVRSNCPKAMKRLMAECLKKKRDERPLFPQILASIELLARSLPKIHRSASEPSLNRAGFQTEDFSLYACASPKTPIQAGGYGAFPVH

Row | Compound | IC50 [1] [nM] | EC50 [2] [nM] | EC50 (A-375) [nM] | IC50 (MAP kinase p38) [nM] | Ratio IC50 (Homo sapiens [3]) | IC50 [4] [nM] | Ratio IC50 (Homo sapiens [5]) | solubility [6] [µM] | IC50 [7] [nM] | IC50 [8] [nM] | IC50 (Ephrin type-A receptor 4) [nM] | IC50 (Ephrin type-B receptor 4) [nM] | IC50 [9] [nM] | CL/F [10] [mL/min/kg] | Vd (Mus musculus) [L/kg] | half-life [11] [h] | bioavailability [12] [%]
1 | CC(=O)Nc1cn2cc(-c3cc(NC(=O)c4cccc(C(C)(C)C)c4)ccc3C)ccc2n1 | 0.3 | 25 | 57 | 2 | 7 | 44 | 146 |  |  |  |  |  |  |  |  |  | 
2 | CC(=O)Nc1cn2cc(-c3cc(NC(=O)c4cccc(Cl)c4)ccc3C)ccc2n1 | 0.3 | 480 | 70 | 3100 | 10000 | 2700 | 9000 |  |  |  |  |  |  |  |  |  | 
3 | CC(=O)Nc1cn2cc(-c3cc(NC(=O)c4ccccc4)ccc3C)ccc2n1 | 61 | 540 | 100 | 1600 | 3 to 20 | 11000 | 18 |  |  |  |  |  |  |  |  |  | 
4 | CC(=O)Nc1cn2cc(-c3cc(NC(=O)c4cc(C(F)(F)F)ccn4)ccc3C)ccc2n1 | 0.9 | 770 | 280 | 660 | 700 | 2000 | 2000 |  |  |  |  |  |  |  |  |  | 
5 | CC(=O)Nc1cn2cc(-c3cc(NC(=O)c4ccc(CN5CCN(C)CC5)c(C(F)(F)F)c4)ccc3C)ccc2n1 | 5 | 130 | 430 | < 11 | < 2 | 110 | 20 | 4.6 (≈ 2.6 µg/mL) |  |  |  |  |  |  |  |  | 
6 | CC(=O)Nc1cn2cc(-c3cc(NC(=O)c4cc(N5CCN(C)C[C@@H]5C)cc(C(F)(F)F)c4)ccc3C)ccc2n1 | 3 | 240 | 340 | 2 | 0.7 |  |  | 122 (≈ 68.9 µg/mL) |  |  |  |  |  |  |  |  | 
7 | CC(=O)Nc1cn2cc(-c3cc(NC(=O)c4cccc(C(F)(F)F)c4)ccc3C)ccc2n1 | 0.2 | 230 | 86 | 220 | 1100 | 320 to 670 | 1600 | < 0.4 | 8 | 52 | 74 | 150 | 170 | 18 | 2.15 | 2.45 | 73
8 | CC(=O)Nc1cn2cc(-c3cc(NC(=O)c4cccc(C(F)(F)F)n4)ccc3C)ccc2n1 | 6 | > 10000 | 130 | > 25000 | > 4000 |  |  |  |  |  |  |  |  |  |  |  | 

Reference: ChEMBL document CHEMBL4177673, “Imidazo[1,2-a]pyridin-6-yl-benzamide analogs as potent RAF inhibitors” (Bioorg Med Chem Lett, 2017)
